From US20100292091A1, “MARA FAMILY HELIX-TURN-HELIX DOMAINS AND THEIR METHODS OF USE” (Trustees of Tufts College, priority 1998, published 2010)
Where a name gives a salt, the structure may show the parent alone.

Assays:
E. coli BL21 = assay: Antibiotic gradient plate susceptibility of E. coli transformants with plasmids bearing E. coli mar genes; assay type: cell-based, Escherichia coli
Description: PCR oligonucleotide primers were used to prepare a wild-type marA amplicon from E. coli AG100 (A. M. George, et al, J. Bacteriol., 1983, 155:531-540) chromosomal DNA, based on the annotated sequence (S. P. Cohen, et al. J. Bacteriol., 1993, 175:1484-1492). The oligonucleotide primers corresponded with nucleotide positions 1893 to 1910 and 2265 to 2282 and contained terminal EcoRI restriction enzyme sites to allow insertion of marA in frame with the hsp60 mycobacterial heat shock promoter resident on the E. coli-Mycobacterium shuttle plasmid pMV261 (W. R. Jacobs, et al. Microbiol. Immunol., 1990, 155:153-160). […] These mutant marA genes were ligated to pMV261 and pET13a for testing in M. smegmatis and E. coli, respectively. Plasmids were introduced into E. coli and M. smegmatis mc^2155 by electroporation with a Gene Pulser transfection apparatus (Bio-Rad. Richmond, Calif.) and selected on kanamycin (10 or 25 μg/ml).
To obtain support for the notion that the resistance phenotype was a direct result of MarA activity in the cell, insertional mutants targeted to the first helix-turn-helix domain (HTH1) (M. N. Alekshun, et al. Chemother, 41:2067-2075) of the MarA protein were constructed. […] A double-stranded synthetic oligonucleotide with compatible ends was ligated to the NheI sites to produce two distinct insertional mutants interrupting each of the two putative alpha-helical regions (FIG. 1). These mutated genes were cloned into pMV261, as described above, for susceptibility testing in M. smegmatis at 37° C. They were also expressed from the isopropyl-β-D-thiogalactopyranoside (IPTG)-regulated T7 promoter resident on plasmid pET13a for testing in E. coli BL21 (Studier et al. 1990. Methods Enzymol. 185:60). Insertional inactivation of MarA at either helix A or helix B of the first HTH abolished the multidrug resistance phenotype in both E. coli and M. smegmatis the (Table 3 and 4).

M. smegmatis mc^2155 = assay type: cell-based, Mycobacterium smegmatis
[1] = transformant pEC10 (pET13::marA), same gradients
[2] = transformant pET13a (vector), gradient (µg/ml) CML 2.0, TET 1.0, AMP 3.0, NAL 1.0

O=C(N[C@H](CO)[C@H](O)c1ccc([N+](=O)[O-])cc1)C(Cl)Cl [CML, chloramphenicol]
% Gowth in antibiotic gradient (E. coli BL21; [1]): 100%
% Gowth in antibiotic gradient (E. coli BL21; [2]): 20 ± 1.1%
fold increase of resistance in the presence of marA (M. smegmatis mc^2155): two-fold
resistance compared to the microbe with vector alone (M. smegmatis mc^2155): increased resistance

CC[C@@H](CO)NCCN[C@@H](CC)CO [ETM, ethambutol]
fold increase of resistance in the presence of marA (M. smegmatis mc^2155): 1.5 fold
resistance compared to the microbe with vector alone (M. smegmatis mc^2155): increased resistance

NNC(=O)c1ccncc1 [INH, isoniazid]
fold increase of resistance in the presence of marA (M. smegmatis mc^2155): 2.5 fold
resistance compared to the microbe with vector alone (M. smegmatis mc^2155): increased resistance

CCn1cc(C(=O)O)c(=O)c2ccc(C)nc21 [NAL, nalidixic acid]
% Gowth in antibiotic gradient (E. coli BL21; [1]): 100%
% Gowth in antibiotic gradient (E. coli BL21; [2]): 17 ± 0.8%
change in susceptibility in the presence of marA (M. smegmatis mc^2155): Little if any change in susceptibility

CC1(C)S[C@@H]2[C@H](NC(=O)[C@H](N)c3ccccc3)C(=O)N2[C@H]1C(=O)O [AMP, ampicillin]
% Gowth in antibiotic gradient (E. coli BL21; [1]): 11 ± 2.0%
% Gowth in antibiotic gradient (E. coli BL21; [2]): 2 ± 1.1%

CO[C@H]1/C=C/O[C@@]2(C)Oc3c(C)c(O)c4c(O)c(c(/C=N/N5CCN(C)CC5)c(O)c4c3C2=O)NC(=O)/C(C)=C\C=C\[C@H](C)[C@H](O)[C@@H](C)[C@@H](O)[C@@H](C)[C@H](OC(C)=O)[C@@H]1C [RIF, rifampin]
resistance compared to the microbe with vector alone (M. smegmatis mc^2155): Increased resistance
resistance in the presence of vector alone (M. smegmatis mc^2155): increased

COS(=O)(=O)[O-].C[n+]1c2ccccc2nc2ccccc21 [phenazine methosulfate]
change in susceptibility in the presence of marA (M. smegmatis mc^2155): Little if any change in susceptibility

CCn1cc(C(=O)O)c(=O)c2cc(F)c(N3CCNCC3)cc21 [Nor, norfloxacin]
change in susceptibility in the presence of marA (M. smegmatis mc^2155): some increased susceptibility

[H]/N=C(/N)N[C@H]1[C@H](O)[C@@H](O)[C@H](O[C@@H]2O[C@@H](C)[C@](O)(C=O)[C@H]2O[C@@H]2O[C@@H](CO)[C@H](O)[C@@H](O)[C@@H]2NC)[C@@H](N/C(N)=N\[H])[C@@H]1O [streptomycin, streptomycin sulfate]
change in susceptibility in the presence of marA (M. smegmatis mc^2155): some increased susceptibility

C[C@@H]1CN(c2c(F)c(N)c3c(=O)c(C(=O)O)cn(C4CC4)c3c2F)C[C@H](C)N1 [sparfloxacin]
change in susceptibility in the presence of marA (M. smegmatis mc^2155): Little if any change in susceptibility

CN(C)[C@@H]1C(O)=C(C(N)=O)C(=O)[C@@]2(O)C(O)=C3C(=O)c4c(O)cccc4[C@@](C)(O)[C@H]3C[C@@H]12 [TET, tetracycline]
% Gowth in antibiotic gradient (E. coli BL21; [1]): 100%
% Gowth in antibiotic gradient (E. coli BL21; [2]): 33 ± 1.0%
% Gowth in antibiotic gradient (E. coli BL21; {}): 33 ± 1.4%
